Consider three molecules from patent US12533411B2, “Compositions comprising anti-CD38 antibodies and carfilzomib” (Sanofi-Aventis U.S. LLC, priority 2013, dated 2026).

Experiment [1] has as its system tumor cells. The following applies: reported in the literature; cited from earlier work.
In the next experiment the test system is NCI-H929 xenografts. The experiment in a line: NCI-H929 hind-flank xenograft tumor growth (Example 3, FIGS. 12-13). The following applies: for tumor growth inhibition, single agent: single-agent administration, NCI-H929 hind-flank model (FIG. 12). It is filed as in vivo, Balb/c Scid mice. The method, then:
Carfilzomib (PR-171) was obtained from Chemie Tek (CT-CARP 98). Carfilzomib was formulated in an aqueous solution of 10% (w/v) sulfobutylether-h-cyclodextrin (Cydex) and 10 mmol/L sodium citrate (pH 3.5), 2 mg/ml stock prepared and frozen at −80° C., diluted daily with vehicle before injection. Carfilzomib was administered weekly qd×2×3 wk (iv).
Test Animals: 5-6 week old female Balb/c Scid mice were obtained from Jackson Lab. Mice were housed for 7-10 days prior to implantation of multiple myeloma (MM) cell lines. Mice were housed in a dedicated room in the UCSF Mt. Zion Animal Barrier Facility.
(§1) Xenograft Model: At the time of implantation, mice were shaved on the right flank and shoulder. MM cells were suspended in serum free RPMI 1640 media diluted 1:1 with Matrigel (BD) at a concentration of 1×10^8 cells per ml were injected sc into the right flank in 100 ul volume (1×10^7 cells) using a 1 ml syringe and 25 g needle. Mice were monitored twice weekly for the appearance of tumors and once tumors were visible, measurements were collected twice weekly for body weight and tumor volume. Electronic balance and calipers were used and data was collected directly into a study management program (Study Director). When the mean tumor volume reached approximately 150-200 mm^3, mice were distributed into treatment groups of 8-10 mice per group and dosing was initiated.

Experiment [2] concerns RPMI-8226 xenograft models. Nature of the experiment: RPMI-8226 subcutaneous multiple myeloma xenograft mouse model (Example 1). The format is in vivo, Balb/c Scid mice. The following applies: Day 41, carfilzomib 3 mg/kg qd×2 every wk×3 wk, hu38SB19 3 mg/kg BIW×2 wk.
Text: The subcutaneous multiple myeloma (MM) xenograft mouse models were established using NCI-H929 or RPMI-8226 cell lines. Specifically, 5-6 week old female Balb/c Scid mice were obtained from Jackson Lab. Mice were housed for 7-10 days prior to implantation. Mice were housed in a dedicated room in the UCSF Mt Zion Animal Barrier Facility. NCI-H929 and RPMI-8226 cells were obtained from the German Collection of Microorganisms and Cell Cultures, DSMZ, (Deutsche Sammlung von Mikroorganismen and Zellkulturen), and grown in sterile suspension culture in T225 flasks as follows: NCI-H929: RPMI1640+20% FBS+4 mM L−glutamine+1 mM sodium pyruvate+50 μM mercaptoethanol. RPMI-8226: RPMI1640+10% FBS+4 mM L-glutamine.
as §1, with “At” for “Xenograft Model: At”, “shoulder region and anesthetized with ip avertin.” for “shoulder.”, “cells” for “cells were”, “μL” for “ul”, “When the mean tumor volume reached approximately 150-200 mm^3, mice were distributed into treatment groups of 8-10 mice per group and dosing was initiated.” left out

The test system of experiment [3] is NCI-H929 multiple myeloma model. The experiment in a line: NCI-H929 subcutaneous multiple myeloma xenograft mouse model (Example 1). It is filed as in vivo, Balb/c Scid mice. The following applies: carfilzomib 2 mg/kg 2×/wk × 3 wk IV; for Activity: D69, hu38SB19 0.5 mg/kg 2×/wk × 2 wk IV. From the text:
The subcutaneous multiple myeloma (MM) xenograft mouse models were established using NCI-H929 or RPMI-8226 cell lines. Specifically, 5-6 week old female Balb/c Scid mice were obtained from Jackson Lab. Mice were housed for 7-10 days prior to implantation. Mice were housed in a dedicated room in the UCSF Mt Zion Animal Barrier Facility. NCI-H929 and RPMI-8226 cells were obtained from the German Collection of Microorganisms and Cell Cultures, DSMZ, (Deutsche Sammlung von Mikroorganismen and Zellkulturen), and grown in sterile suspension culture in T225 flasks as follows: NCI-H929: RPMI1640+20% FBS+4 mM L−glutamine+1 mM sodium pyruvate+50 μM mercaptoethanol. RPMI-8226: RPMI1640+10% FBS+4 mM L-glutamine. At the time of implantation, mice were shaved on the right flank and shoulder region and anesthetized with ip avertin. MM cells suspended in serum free RPMI 1640 media diluted 1:1 with Matrigel (BD) at a concentration of 1×10^8 cells per ml were injected sc into the right flank in 100 μL volume (1×10^7 cells) using a 1 ml syringe and 25 g needle. Mice were monitored twice weekly for the appearance of tumors and once tumors were visible, measurements were collected twice weekly for body weight and tumor volume. Electronic balance and calipers were used and data was collected directly into a study management program (Study Director). When the mean tumor volume reached about 150-200 mm^3, the mice were distributed into treatment groups of 8-10 mice per groups and dosing was begun. […] Dose levels for use in combination studies are as follows: Data were collected using electronic balance and calipers using a study management application called StudyLog (Study Director). […] Antitumor activity was determined according to NCI standards based on the ratio of the median tumor volume change of the treated/median tumor volume change of the control×100 (% ΔT/ΔC). Low numerical values for ΔT/ΔC describe stronger anti-tumor activity. Anti-tumor activity is defined as T/C≤40% at minimum. ΔT/ΔC<10% is considered high anti-tumor activity.

Experiment [4] deals with tumor cells. Nature of the experiment: Direct pro-apoptotic activity on tumor cells without cross-linking. The format is cell-based. The following applies: preclinical studies.

Entries after “also recorded” stand apart in the source; their conditions may differ.

In the case of “Daratumumab: CD38 antibody reported to induce apoptosis only after cross-linking with a secondary antibody”, in the experiment on tumor cells [1], the induction of apoptosis entry is “able to induce apoptosis only after cross-linking with a secondary antibody”.
`CC(C)C[C@H](NC(=O)[C@H](CCc1ccccc1)NC(=O)CN1CCOCC1)C(=O)N[C@@H](Cc1ccccc1)C(=O)N[C@@H](CC(C)C)C(=O)[C@@]1(C)CO1` [Carfilzomib, (S)-4-Methyl-N-((S)-1-(((S)-4-methyl-1-((R)-2-methyloxiran-2-yl)-1-oxopentan-2-yl)amino)-1-oxo-3-phenylpropan-2-yl)-2-((S)-2-(2-morpholinoacetamido)-4-phenylbutanamido)pentanamide]: the “tumor growth inhibition, single agent” value in the experiment on NCI-H929 xenografts is on record as “not robustly sensitive to single-agent therapy”. The complete regressions in experiment [2] is listed as 0/10. Also, the Activity result in experiment [3] was “Inactive”; in experiment [3] (listed as carfilzomib), “inactive”. For the same molecule, in experiment [3] (hu38SB19 0.5 mg/kg 2×/wk × 2 wk IV), the “% ΔT/ΔC (D69)” value worked out at 68%.
On to “hu38SB19: humanized anti-CD38 antibody; VH SEQ ID NO: 66, VL SEQ ID NO: 62 or 64; humanized version of 38SB19”, for which, in the experiment on NCI-H929 xenografts (hu38SB19 as sole active ingredient, four cumulative doses twice weekly at 3 mg/kg (FIG. 12)), the “elimination of palpable tumors” value is “eliminate palpable tumors in all mice”. For the same molecule, the “tumor growth inhibition, single agent” value with NCI-H929 xenografts was “dose-dependent inhibition of tumor growth; also recorded: dose-dependent anti-tumor effects”. Moreover, the complete regressions in experiment [2] is listed as 2/10. Besides, the direct pro-apoptotic activity entry with tumor cells [4] was “potent direct pro-apoptotic activity”. Also, the outcome in experiment [3] was Inactive.
